Patent US10004727B2, “Composition for preventing, alleviating or treating metabolic diseases, containing amodiaquine as active ingredient” (POSTECH ACADEMY—INDUSTRY FOUNDATION, priority 2015, dated 2018)

Assays:
[1] = biological target: T1, human PPAR-γ-ligand binding domain (LBD) (Homo sapiens, UniProt P37231); experiment: GAL4-PPAR-γ-LBD luciferase reporter assay in BE(2)C cells; type: cell-based; details: various concentrations up to 50 μM, 20 hours, FIGS. 1A and 1B
T1 construct: expressed in transfected cells; host or cells: BE(2)C cells
T1 sequence (P37231 238-503 limits assumed): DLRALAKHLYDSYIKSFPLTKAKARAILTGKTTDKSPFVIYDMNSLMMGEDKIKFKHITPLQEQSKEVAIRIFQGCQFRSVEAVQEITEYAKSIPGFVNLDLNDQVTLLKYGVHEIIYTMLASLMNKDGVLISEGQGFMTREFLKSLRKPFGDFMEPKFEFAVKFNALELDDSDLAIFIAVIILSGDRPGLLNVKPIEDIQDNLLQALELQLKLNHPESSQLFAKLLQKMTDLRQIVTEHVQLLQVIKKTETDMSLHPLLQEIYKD
Experimental: (§1) To examine whether amodiaquine serves as a ligand of PPAR-γ or PPAR-α, three types of vectors were used.
(§2) The activation of luciferase expression was detected 6 hours after BE(2)C cells were transformed with a GAL4-PPAR-γ-LBD plasmid or GAL4-PPAR-α-LBD plasmid, the GAL4-luciferase vector and the β-galactosidase vector, and growing amodiaquine-treated cells for 20 hours in a 5% CO2 incubator.

PPAR-α-LBD = biological target: T2, PPAR-α-LBD (Homo sapiens, UniProt Q07869); experiment: GAL4-PPAR-α-LBD luciferase reporter assay in BE(2)C cells; type: cell-based; details: various concentrations up to 50 μM, 20 hours, FIGS. 1C and 1D
T2 construct: expressed in transfected cells; host or cells: BE(2)C cells
T2 sequence (Q07869 239-466 limits assumed): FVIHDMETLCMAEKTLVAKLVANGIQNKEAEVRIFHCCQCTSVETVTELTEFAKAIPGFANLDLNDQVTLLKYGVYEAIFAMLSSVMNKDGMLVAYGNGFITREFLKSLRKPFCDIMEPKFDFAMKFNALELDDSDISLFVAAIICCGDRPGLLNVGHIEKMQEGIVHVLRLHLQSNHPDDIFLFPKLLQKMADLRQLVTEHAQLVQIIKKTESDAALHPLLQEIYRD
Experimental: as §1, §2

[2] = tested on: high fat-induced obesity mice; experiment: Intraperitoneal insulin tolerance test (IPITT) in high fat-induced obesity mice; type: in vivo, mouse; details: 0.5 U/kg insulin i.p.; for time of lowest blood glucose level (IPITT): substance given after long-term HFD induction, FIG. 7C; for blood glucose concentration after 2 hours (IPITT): HFD with simultaneous substance, FIG. 7B
Experimental: After 16-hour fasting, 0.5 U/kg of insulin was intraperitoneally administered to each animal in the controls and the experimental group, and a blood glucose concentration was measured every 30 minutes for 2 hours. For measurement of the blood glucose concentration, an IPITT was used.

C2C12 myotube cells = experiment: Glucose uptake ([3H]2-DOG) evaluation test in C2C12 myotube cells; type: cell-based, mouse; details: C2C12 myotubes, 10 and 30 μM amodiaquine for 24 hours, compared with 50 μM rosiglitazone; FIG. 2
Experimental: Phosphorylation of insulin receptors occurs due to signal transduction by insulin in muscle, adipose or liver cells, and therefore when various proteins located downstream are phosphorylated, glucose uptake increases resulting in reduced blood glucose. A glucose uptake evaluation test was performed to identify whether amodiaquine is effective in diabetes. C2C12 myoblasts, which are muscle cells, were cultured in 10% […]-containing DMEM. When the cell density reached approximately 80 to 90%, the medium was replaced with fresh 2% horse serum-containing DMEM, and cell differentiation of the C2C12 myoblasts to myotubes was induced to make them completely differentiated, followed by carrying out an experiment. […] Washing was repeated three times every twenty minutes. Subsequently, 1 ml of KRP buffer was injected, a solution (0.2 mM, 0.2 μCi) prepared by dissolving unlabeled 2-DOG and [^3H]2-DOG (Amersham Pharmacia) in KRP buffer was added at 37° C. to allow treatment for exactly 10 minutes. The resulting cells were washed with 3 ml of cold phosphate buffered saline (PBS) to stop a glucose uptake reaction, further washed twice with PBS, air-dried for approximately 1 hour, and lyzed with 1 ml of 0.1% SDS by pipetting, and then 300 μl of the lysate was obtained to detect radioactivity using a liquid scintillation counter (Perkin Elmer, USA).

KKAy mice [3] = experiment: Fasting blood glucose in KKAy mice; type: in vivo, mouse; details: 18 mg/kg daily oral for 6 weeks, control 132.4 mg/dl
Experimental: (§3) Following one-week acclimation, 5-week-old KKAy mice purchased from Saeronbio Inc. were divided into two groups of 5.
(§4) The first group was set as a negative control by administering PBS, and the second group was treated by daily oral administration of amodiaquine at 18 mg/kg for 6 weeks.
(§5) Fasting blood glucose was measured for 6 weeks from whole blood taken from the caudal vein of each mouse 1, 2, 5 and 6 weeks after 12-hour fasting. For blood glucose measurement, a blood glucose strip (Green Cross, Gyeonggi-do, Korea) was used. […] In addition, to identify the blood glucose regulation effect, 2 g/kg of glucose was intraperitoneally injected into the mice of the control and experimental group after 16-hour fasting, and the level of blood glucose was measured every 30 minutes for 2 hours. For measurement of the blood glucose concentration, an intraperitoneal glucose tolerance test (IPGTT) was used.

KKAy mice [4] = experiment: Intraperitoneal glucose tolerance test (IPGTT) in KKAy mice; type: in vivo, mouse; details: 18 mg/kg daily oral for 6 weeks, 2 g/kg glucose i.p. after 16-hour fasting, control 293.2 mg/dl
Experimental: as §3, §4, §5

KKAy mice [5] = experiment: Glycated hemoglobin (HbA1C) content in KKAy mice; type: in vivo, mouse; details: 18 mg/kg daily oral for 6 weeks, FIG. 4
Experimental: To detect a change in glycated hemoglobin content in mice by amodiaquine, after 1-week acclimation, 5-week-old KKAy mice were purchased from Saeronbio Inc. were divided into two groups of 5. Like in Example 3, the first group of mice were set as a control by administering PBS, and the second group was treated by daily oral administration of amodiaquine at 18 mg/kg for 6 weeks using a 1 ml syringe. To detect an effect of amodiaquine on reducing glycated hemoglobin content, whole blood was taken from the caudal vein of each mouse in the control and experimental group, injected into an easy A1c cartridge, and then assessed using an easy A1c analyzer (Asan Pharmaceutical Co., Ltd., Seoul, Korea). An independent group t-test was performed on the experimental group and the control to identify significance in the test results, and a statistically significant difference was shown (**p<0.005).

[6] = Body weight of high fat-induced obesity mice; type: in vivo, mouse; details: C57BL/6 mice, amodiaquine 20 mg/kg
Experimental: The mice were divided into groups of 7, freely fed water and diets in a cage, and then acclimated for 1 week before an experiment. […] [table] […] An average body weight was calculated by dividing the sum of weights of 7 mice per group by the number of mice.

[7] = tested on: high fat-induced obesity mouse; experiment: 4° C. cold test (thermal production) in high fat-induced obesity mice; type: in vivo; details: HFD mice, 14 weeks, amodiaquine 20 mg/kg; 4° C. for up to 6 hours; versus high fat obesity-induced mouse; FIG. 6
Experimental: To measure a thermal production capability with respect to mice fed a high fat diet for 14 weeks among the experimental animals designed in Example 5, a 4° C. cold test was performed (Spiegelman B. M. et al., Cell 92: 829-839, 1998). Hereinafter, the measurement method will be described in detail. A body temperature of mice in the high fat-induced obesity mouse groups was measured before being exposed to 4° C. and recorded as a test start temperature, and then the mice were exposed to 4° C. for up to 6 hours, followed by measuring a body temperature. The body temperature was measured using a rectal thermometer for a mouse (testo 925, Germany) A thermal production value indicated a temperature measured every hour.

[8] = tested on: high fat-induced obesity mice; experiment: Oral glucose tolerance test (OGTT) in high fat-induced obesity mice; type: in vivo, mouse; details: HFD mice with amodiaquine; 2 g/kg glucose oral after 16-hour fasting; HFD control 180.5 mg/dl; FIG. 7A
Experimental: After 16-hour fasting, 2 g/kg of glucose was orally administered to each animal in the controls and experimental group, and a blood glucose concentration was measured every 30 minutes for 2 hours. For measurement of the blood glucose concentration, an OGTT was used.

[9] = tested on: liver of the high fat-induced obesity mouse; experiment: Fatty liver histology (hematoxylin-eosin) in high fat-induced obesity mice; type: in vivo; details: HFD with amodiaquine for 14 weeks; FIG. 8
Experimental: Among the experimental animals designed in Example 5, mice in the high fat-induced obesity mouse group fed a high fat diet for 14 weeks were sacrificed by cervical spine dislocation, fixed on a dissection stand, and subjected to abdominal dissection with a scalpel to extract the liver. The extracted liver tissue was fixed in a 10% formalin solution to prevent contracted deformation. After the fixed tissue was washed with running water after 24 hours, general tissue dehydration, clearing and impregnation were performed using an automatic tissue processor (6460B, Sakura, Japan) for 14 hours, and manufacture of paraffin blocks and cooling were performed using an automated embedding device (Tissue-Tex, Japan). The manufactured paraffin blocks were continuously sliced to a thickness of 4 to 5 μm in a vertical direction of the tissue using a rotary microtome 2040 (Japan), and attached to slides after processing using a water bath and a slide warming table. The thin tissue section was stained with hematoxylin, an excessively-stained part was washed with running tap water, and then the resulting section was dipped in 1% HCl and a 70% A/C solution 3 to 5 times to stain the nuclei blue. […]

Row | PPAR-γ activity (luciferase expression) [1] | SMILES | PPAR-α activity (luciferase expression) (PPAR-α-LBD) | time of lowest blood glucose level (IPITT) [2] [min] | blood glucose concentration after 2 hours (IPITT) [2] | further results
1 | PPAR-γ activity was not shown | CCN(CC)CCCC(C)Nc1ccnc2cc(Cl)ccc12 (stereo not drawn) [chloroquine, 7-chloro-4-(4-diethylamino-1-methylbutylamino)quinoline] | did not show the PPAR-α activity |  |  | 
2 |  | CN(CCOc1ccc(CC2SC(=O)NC2=O)cc1)c1ccccn1 (stereo not drawn) [rosiglitazone] |  | 60 |  | 
3 | PPAR-γ activity was not shown | Cc1cccc(Nc2cc(Cl)nc(SCC(=O)O)n2)c1C [WY-14,643] |  |  | maintained lower than the fasting blood glucose concentration | 

Row | SMILES | PPAR-γ activity (luciferase expression) [1] | PPAR-α activity (luciferase expression) (PPAR-α-LBD) | time of lowest blood glucose level (IPITT) [2] [min] | blood glucose concentration after 2 hours (IPITT) [2] | further results
4 | CCN(CC)Cc1cc(Nc2ccnc3cc(Cl)ccc23)ccc1O [amodiaquine, 4-[(7-chloroquinolin-4-yl)amino]-2-[(diethylamino)methyl]phenol] | higher concentration-dependent PPAR-γ activity | high concentration-dependent PPAR-α activity | 30 | maintained lower than the fasting blood glucose concentration | glucose uptake (C2C12 myotube cells): further increased than that in the rosiglitazone-treated group; fasting blood glucose concentration (KKAy mice [3]): 100.2 mg/dL; blood glucose concentration 2 hours after glucose loading (IPGTT) (KKAy mice [4]): 207 mg/dL; production of glycated hemoglobin relative to the control mice (KKAy mice [5]): ~69%; body weight versus high fat-induced obesity mouse (prevention) ([6]; HFD with substance for 14 weeks, FIG. 5A): significantly lower than that of the high fat-induced obesity mouse; body weight versus high fat-induced obesity mouse (treatment) ([6]; substance for 7 weeks after 15-week HFD induction, rosiglitazone 50 mg/kg, FIG. 5C): significantly lower than that of the high fat-induced obesity mouse; body temperature on exposure to 4° C. (thermal production) [7]: less decreased in body temperature; blood glucose concentration 2 hours after glucose loading (OGTT) [8]: 139.1 mg/dL; liver appearance (fat accumulation, hematoxylin-eosin) [9]: almost the same appearance as that of a normal mouse
